For experiment [1], the system named is endogenous proteins of Jurkat extract. Put plainly: Single-point nHU-MS with biotinylated NPF motif peptide baits, proteome-wide. The format is binding, human. The note with it: FigureS2 Volcano; prey FBXO3. The text has this:
To identify the partners of NPF motifs, we used the native holdup (nHU) assay that was recently developed by our team (Fig. 1B). The holdup approach has been extensively used to determine equilibrium dissociation constants of transient interactions mediated by PDZ and SH3 domains, 14-3-3, and human papilloma virus E6 proteins, and even nucleic acid-protein interactions[7],[30]–[35]. In the nHU experiments, a purified bait molecule, or a control compound, is immobilized on a resin at high concentration (typically 10 μM, or higher) and these resin stocks are subsequently mixed with dilute cell extracts. […] This liquid phase contains the unbound prey molecules at near binding equilibrium that can be quantified using selective and quantitative analytical approaches, such as mass spectrometry. Therefore, proteins that interact with the bait molecule will appear to be depleted in the solvent phase and by measuring its relative concentration compared to the control nHU experiment, the degree of binding (θ) can be determined that can be converted to apparent steady-state dissociation constants, according to:1 θ=1−Ifree/Itot=Cbait/Cbait+Kapp where Itot and Ifree are the measured total and bait-depleted equilibrium mass spectrometry total ion intensities of prey proteins, Cbait is the bait molecule concentration and Kapp is the apparent dissociation constant. […]

Experiment [2] relates to POLE. Put plainly: Titration nHU, Western blot, endogenous POLE in Jurkat extract. The format is binding, human. As to conditions: titration nHU, Jurkat extract. The text has this:
To identify the partners of NPF motifs, we used the native holdup (nHU) assay that was recently developed by our team (Fig. 1B). The holdup approach has been extensively used to determine equilibrium dissociation constants of transient interactions mediated by PDZ and SH3 domains, 14-3-3, and human papilloma virus E6 proteins, and even nucleic acid-protein interactions[7],[30]–[35]. In the nHU experiments, a purified bait molecule, or a control compound, is immobilized on a resin at high concentration (typically 10 μM, or higher) and these resin stocks are subsequently mixed with dilute cell extracts. After a relatively long incubation, i.e., 2 h at 4 °C, the liquid phase is separated by centrifugation. This liquid phase contains the unbound prey molecules at near binding equilibrium that can be quantified using selective and quantitative analytical approaches, such as mass spectrometry. Therefore, proteins that interact with the bait molecule will appear to be depleted in the solvent phase and by measuring its relative concentration compared to the control nHU experiment, the degree of binding (θ) can be determined that can be converted to apparent steady-state dissociation constants, according to:1 θ=1−Ifree/Itot=Cbait/Cbait+Kapp where Itot and Ifree are the measured total and bait-depleted equilibrium mass spectrometry total ion intensities of prey proteins, Cbait is the bait molecule concentration and Kapp is the apparent dissociation constant.
Jurkat E6.1 cells (ECACC #88042803, RRID: CVCL_0367) were grown in RPMI (Gibco) medium completed with 10% FBS (Gibco BRL) and 40 μg/ml gentamicin (Gibco/Life Technology). To prepare total cell extracts, Jurkat cells were seeded onto T-175 flasks and grew until 3 × 10^6 cells/ml confluency. Cells were collected by 1000 g x 5 min centrifugation, washed with PBS and then lysed in ice-cold lysis buffer (Hepes-KOH pH 7.5 50 mM, NaCl 150 mM, Triton X-100 1%, cOmplete EDTA-free protease inhibitor cocktail 5x, TCEP 5 mM, glycerol 10%).
Cell suspensions were sonicated 4×20 sec with 1 sec long pulse on ice, then incubated rotating at 4 °C for 30 min. The lysates were centrifuged at 12,000 rpm 4 °C for 20 min and supernatant was kept. Total protein concentration was measured by standard Bradford method (Bio-Rad Protein Assay Dye Reagent #5000006) using a BSA calibration curve (MP Biomedicals #160069, diluted in lysis buffer) on a Bio-Rad SmartSpec 3000 spectrophotometer instrument.
Titration holdup experiments were carried out as described above using 25 μl saturated resins prepared. Briefly, we mixed control, or bait-saturated resins at various proportions by keeping the total resin amount and resin-analyte ratio constant during the experiment (for 25 μl we used 100 μl cell extract as analyte). In titration experiments with protein baits, bait concentration was determined as described above for the saturated resin stocks. Experiments were carried out at 4 °C for 2 h and recovered supernatants were subjected to western blot or dot blot analysis.
For Western blot, samples were mixed with 4x Laemmli Sample Buffer in 3:1 ratio. Equal amounts of samples were loaded on 6-10% acrylamide-gels (generally 16 μg). Transfer was done into PVDF membranes using a Trans-Blot Turbo Transfer System and Trans-Blot Turbo RTA Transfer Kit (BioRad, #1704275). For Dot blot, nHU samples were directly loaded on Nitrocellulose membranes using 48 Sample vacuum manifold (Cleaver Scientific) following the manufacturer’s recommendations.
After 1 h of blocking in 5% milk, membranes were incubated overnight at 4 °C with primary antibodies in 5% milk-TBS-Tween.
In general terms: Immunoblotting shows a protein as a band on a membrane.

In experiment [3] the test system is POLE. The experiment is described as follows: nHU-MS peptide bait, prey POLE. The note with it: FigureS2 Volcano.
A further experiment has as its target T1, PPP2R2A (Homo sapiens, UniProt P63151).
T1 sequence (P63151 1-447): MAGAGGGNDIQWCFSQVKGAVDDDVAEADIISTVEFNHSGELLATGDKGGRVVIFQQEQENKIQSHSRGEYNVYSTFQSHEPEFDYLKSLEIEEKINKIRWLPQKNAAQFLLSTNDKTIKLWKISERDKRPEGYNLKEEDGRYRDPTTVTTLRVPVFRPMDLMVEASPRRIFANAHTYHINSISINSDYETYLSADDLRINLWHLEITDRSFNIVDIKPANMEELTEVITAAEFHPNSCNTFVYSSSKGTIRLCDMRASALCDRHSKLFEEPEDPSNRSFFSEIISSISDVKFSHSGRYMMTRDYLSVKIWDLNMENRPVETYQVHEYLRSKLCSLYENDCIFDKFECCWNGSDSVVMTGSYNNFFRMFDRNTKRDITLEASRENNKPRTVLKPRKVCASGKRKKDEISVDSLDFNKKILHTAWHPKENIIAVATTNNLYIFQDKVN
The experiment is described as follows: nHU-MS peptide bait, prey PPP2R2A. The note with it: FigureS2 Volcano.

As for TSETSK [SYNJ1], the log2FC in experiment [1] was -0.5002; in the experiment with POLE [3], -0.4452; on PPP2R2A, -0.4164. For the same substance, in the experiment with POLE [2], the “weaker POLE binding than the DONSON motif” value is listed as ~ 6 fold. Also, the “-log10P” value on PPP2R2A worked out at 6.763.

The record behind these values is article PMC12808100, “The non-catalytic DNA polymerase ε subunit is an NPF motif recognition protein” (Nature Communications, 2025).
